Series [1] relates to Mycobacterium tuberculosis. In words: Antibacterial activity against Mycobacterium tuberculosis H37Rv infected in human THP1 cells assessed as reduction of bacterial burden at 40 uM after 96 hrs. The class given is functional. The conditions noted are these: THP-1, 96 h.
Series [2] deals with T1, Low molecular weight protein-tyrosine phosphatase A (Mycobacterium tuberculosis) (UniProt P9WIA1).
T1 sequence (whole entry): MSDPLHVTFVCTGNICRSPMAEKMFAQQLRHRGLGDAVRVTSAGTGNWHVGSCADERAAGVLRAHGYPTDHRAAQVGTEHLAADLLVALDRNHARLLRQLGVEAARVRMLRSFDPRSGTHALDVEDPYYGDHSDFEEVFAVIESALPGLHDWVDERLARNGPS
In words: Competitive inhibition of Mycobacterium tuberculosis PTPA by Lineweaver-Burke plot analysis.

Series [3] deals with T2, Low molecular weight protein-tyrosine phosphatase A (Mycobacterium tuberculosis, UniProt P9WIA1).
T2 sequence (P9WIA1 whole entry): T1 sequence (whole entry)
In words: Inhibition of Mycobacterium tuberculosis PTPA-mediated pNPP hydrolysis.

Series [4] deals with THP-1. The series can be described thus: Cytotoxicity against human THP1 cells at 4 uM after 24 hrs by flow cytometry. Type of series: cell-based. The conditions noted are these: thp-1, 24 h. A general note: In flow cytometry, cells or beads pass a laser one at a time.
Series [5] addresses T3, Phosphotyrosine-protein phosphatase PTPB (Mycobacterium tuberculosis) (UniProt P96830).
T3 sequence (whole entry): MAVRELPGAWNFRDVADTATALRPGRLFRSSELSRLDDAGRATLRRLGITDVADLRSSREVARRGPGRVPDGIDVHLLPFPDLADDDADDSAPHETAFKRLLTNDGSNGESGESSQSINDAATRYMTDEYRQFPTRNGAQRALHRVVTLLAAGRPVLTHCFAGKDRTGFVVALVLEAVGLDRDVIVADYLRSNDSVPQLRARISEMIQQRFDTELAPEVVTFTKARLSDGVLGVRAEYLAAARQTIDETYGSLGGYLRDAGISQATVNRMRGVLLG
The series can be described thus: Inhibition of Mycobacterium tuberculosis PTPB at 100 uM after 20 mins by ELISA. (In general: In an ELISA, binding on a coated surface is turned into a signal by an enzyme label.)

In series [6] the test system is Mycobacterium tuberculosis. In words: Antibacterial activity against Mycobacterium tuberculosis H37Rv infected in human THP1 cells assessed as reduction of bacterial burden at 20 uM after 48 hrs. The class given is functional. The conditions noted are these: for inhibition at 20 µM: THP-1, 48 h; for inhibition: THP-1.
Series [7] deals with T4, Tyrosine-protein phosphatase non-receptor type 1 (Homo sapiens, UniProt P18031).
T4 sequence (P18031 whole entry): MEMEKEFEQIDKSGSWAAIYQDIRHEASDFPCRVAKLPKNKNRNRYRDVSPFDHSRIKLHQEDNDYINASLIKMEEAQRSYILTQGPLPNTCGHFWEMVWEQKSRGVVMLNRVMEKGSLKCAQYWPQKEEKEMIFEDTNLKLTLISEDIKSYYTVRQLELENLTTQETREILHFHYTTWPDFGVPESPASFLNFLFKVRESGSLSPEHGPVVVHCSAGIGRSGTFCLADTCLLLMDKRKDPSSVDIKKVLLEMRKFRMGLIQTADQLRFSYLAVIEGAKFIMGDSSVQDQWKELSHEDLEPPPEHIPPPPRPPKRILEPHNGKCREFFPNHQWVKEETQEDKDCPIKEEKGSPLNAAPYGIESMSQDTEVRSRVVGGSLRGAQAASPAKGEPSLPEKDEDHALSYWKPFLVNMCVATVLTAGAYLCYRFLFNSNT
The series can be described thus: Inhibition of human PTP1B.

Series [8] relates to THP-1. The series can be described thus: Cytotoxicity against human THP1 cells at 40 uM after 24 hrs by flow cytometry. Type of series: cell-based. The conditions noted are these: thp-1, 24 h.
Series [9] has as its target T1, Low molecular weight protein-tyrosine phosphatase A (Mycobacterium tuberculosis). In words: Inhibition of Mycobacterium tuberculosis PTPA-mediated dephosphorylation of VPS33B assessed as increase in phosphorylated VPS33B level after 15 mins by scintillation counting.
In series [10] the test system is Mycobacterium tuberculosis. In words: Antibacterial activity against Mycobacterium tuberculosis H37Rv infected in human THP1 cells assessed as reduction of bacterial burden at 10 uM after 24 hrs. The class given is functional, organism-based. The conditions noted are these: THP-1.
In series [11] the target is T5, Phosphotyrosine-protein phosphatase PTPB (Mycobacterium tuberculosis, UniProt P96830).
T5 sequence (P96830 whole entry): T3 sequence (whole entry)
In words: Inhibition of N-terminal histidine-tagged Mycobacterium tuberculosis PTPB expressed in Escherichia coli BL21 (DE3) after 45 mins by fluorescence assay.

In series [12] the target is T2, Low molecular weight protein-tyrosine phosphatase A. The series can be described thus: Inhibition of Mycobacterium tuberculosis PTPA after 20 mins by ELISA.

SMILES strings stand for the structures. Calls of active or inactive are those of the source. The calls are words filed in the database; no cut-off is given here.

With `COc1ccc(OC)c(C(=O)/C=C/c2ccc3ccccc3c2)c1`, the inhibition at 40 µM in [1] turned out to be 90%. Also, the inhibition entry in series [2] was “Active”. In series [3], this compound gave an inhibition constant (Ki) of 5.4 µM. In addition, the Activity in the series on THP-1 [4] amounted to 1.3%; with THP-1 [8] it was 83.1%. Also, the inhibition result in series [5] is “inactive”. In addition, the inhibition at 20 µM in [6] worked out at 50%. In series [7], this compound came in with an IC50 of 145 µM.

For `O=C(/C=C/c1cccc2ccccc12)c1ccccc1O`, the inhibition result in series [9] was “Dose-dependent effect”. The inhibition at 40 µM in series [1] was 77%. In series [2], the inhibition result was “Active”. This compound also displayed a Ki in series [3] of 9.1 µM. In series [5], the inhibition result is “inactive”. The inhibition at 20 µM in series [6] was 50%. The compound also came in with an IC50 in series [7] of 158 µM. The compound also displayed an Activity with THP-1 [8] of 2%.

For `COc1ccc(OC)c(C(=O)/C=C/c2cccc3ccccc23)c1`, the inhibition entry in series [10] and in series [5] was “inactive” in each case. In addition, the inhibition at 40 µM in series [1] was determined as 90%. Further, in series [2], the inhibition result is “Active”. In series [3], this compound registered an inhibition constant Ki of 21.3 µM. Moreover, the Activity with THP-1 [4] amounted to 0.9%; in the series with THP-1 [8] it was 77.8%. For the same compound, in series [6], the inhibition at 20 µM came to 77%. In addition, it took 214 µM to reach half-maximal inhibition in [7] (IC50).

`COc1ccc(C(=O)/C=C/c2ccc3ccccc3c2)cc1OC`: the inhibition at 40 µM in series [1] worked out at 40%. In addition, in series [2], the inhibition entry was “Active”. Besides, the Ki in series [3] is 4.9 µM. The inhibition result in series [5] and in series [6] was “inactive” each time. The compound also came in with an IC50 in series [7] of 1260 µM. Also, in the series with THP-1 [8], the Activity worked out at 1.6%.

The compound `NC1=S2C=CC(S(N)(=O)=O)=C2C(=O)C1=O` (configuration not stated) returned an IC50 in series [11] of 0.44 µM.

For the compound `COc1cc(C(=O)/C=C/c2ccc3ccccc3c2)ccc1O`, the results for the 50% inhibitory concentration (IC50) in series [12] and in [7] were 53.7 µM and 123 µM, respectively. Moreover, in [1], the inhibition at 40 µM came to 80%. The inhibition result in series [2] was “Active”. Moreover, the inhibition constant (Ki) in series [3] was determined as 17.9 µM. Further, the Activity in the series on THP-1 [4] stood at 0.9%; in the series on THP-1 [8], 10.5%. Also, the inhibition entry in [5] and in [6] was “inactive” throughout.

The term inhibition denotes how much of the control response was suppressed. The term Ki denotes the dissociation constant of the complex between target and ligand, obtained from inhibition or displacement. The low end stands for a stronger hold on the target, the high end for a looser hold on the target. As usually defined, the IC50 is the midpoint of a concentration-inhibition curve. A low value points to higher potency.

The values are drawn from ChEMBL document CHEMBL1165932, “Inhibition of Mycobacterium tuberculosis tyrosine phosphatase PtpA by synthetic chalcones: kinetics, molecular modeling, toxicity and effect on growth” (Bioorg Med Chem, 2010).
